According to patent publication US5089392A, “Fluorogenic substrates for measurement of lysosomal enzyme activities within intact cells” (The United States of America as represented by of the …, priority 1990, dated 1992):

What was measured:
[1] = Fluorescence properties of Im-DCH and its galactoside; assay type: physicochemical; settings: excitation at 365 nm, detection at 460 nm
From the text: (§1) Two other advantages of the fluorophors of the present invention derive from their physical and optical properties: (1) The low pKa of the phenol in Im-DCH (pKa-5.6) allows the maximal fluoroscence (excitation at 385 nm, detection at 460 nm) to be generated at physiological pH values as well as the low pH conditions within lysosomes. The extremely low pKa of the excited state of Im-DCH (pKa*=0.5) permits strong fluorescence to be measured in solutions as acidic as pH 2-3. By proper choice of spectral parameters (excitation at 365 nm, detection at 460 nm), the fluorescence becomes essentially independent of pH, with a fluorescence intensity at pH 2 that is 60% of the maximum. Ratio measurements of fluorescence (emission at 460 nm with excitation at 365 and 385 nm) also provide an estimate of the pH at the site of enzymatic hydrolysis. (2) Shifts in both the absorption and emission spectra occur upon the hydrolysis of glycosides of Im-DCH to give free Im-DCH. This permits the detection of small amounts of enzymatic hydrolysis in the presence of a very large excess of substrate. For example, at 385 nm excitation and 460 nm detection, the ratio of fluoroescence of the hydrolysis product, Im-DCH, to intact Im-DCH-β-Gal is 620:1. […] It is then deacetylated intracellularly to generate the enzymatically active substrate.

[2] = pKa of the Im-DCH fluorophor (imidazole moiety, phenol, excited state); assay type: physicochemical
From the text: This term refers to moderately basic amines that concentrate (via acid-base equilibria) in low pH organelles such as lysosomes. For Im-DCH in compounds 4 and 5, the N-alkyl imidazole moiety, with a pKa of approximately 7, serves this function. This lysosomotropic property accounts for a first important attribute of enzyme substrates based upon Im-DCH that is, concentration within lysosomes to ensure that sufficient substrate is concentrated within the lysosomes in order to yield a readily detectable fluorescent signal.
as §1

β-galactosidase = assay: Cell-free systems that have β-galactosidase activity; assay type: biochemical
[3] = biological target: T1, lysosomal β-galactosidase (Homo sapiens, UniProt P16278); assay: Loading and intracellular hydrolysis in intact human skin fibroblasts in culture (fluorescence scanning of 96-well plates, fluorescence microscopy); assay type: cell-based
T1 sequence (P16278 29-677): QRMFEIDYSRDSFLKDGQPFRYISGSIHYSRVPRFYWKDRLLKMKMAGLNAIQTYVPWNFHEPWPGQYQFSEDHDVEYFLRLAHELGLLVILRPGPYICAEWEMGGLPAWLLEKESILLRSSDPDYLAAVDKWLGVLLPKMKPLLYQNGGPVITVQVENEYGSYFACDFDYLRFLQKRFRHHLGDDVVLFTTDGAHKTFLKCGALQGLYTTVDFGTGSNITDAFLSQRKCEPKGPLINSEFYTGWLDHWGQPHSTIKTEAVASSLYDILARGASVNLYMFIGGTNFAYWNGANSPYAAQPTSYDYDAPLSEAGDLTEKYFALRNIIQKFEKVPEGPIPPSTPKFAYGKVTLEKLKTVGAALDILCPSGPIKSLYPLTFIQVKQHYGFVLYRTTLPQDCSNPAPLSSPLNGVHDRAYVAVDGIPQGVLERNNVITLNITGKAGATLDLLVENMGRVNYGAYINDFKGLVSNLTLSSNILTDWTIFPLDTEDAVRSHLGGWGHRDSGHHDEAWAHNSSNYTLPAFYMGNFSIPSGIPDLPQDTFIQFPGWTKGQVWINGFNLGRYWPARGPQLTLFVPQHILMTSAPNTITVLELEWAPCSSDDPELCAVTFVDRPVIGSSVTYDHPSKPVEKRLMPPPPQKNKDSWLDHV
Experimental: Loading of Im-DCH-β-Gal(OAc)., 4, into human skin fibroblasts in culture was accomplished as follows. A 20 mM solution of 4 in ethanol was injected via syringe into McCoy's medium to give a 0.1 mM final concentration of fluorogenic substrate. The substrate was further dispersed in the medium by sonication with a W140 Sonifier (two 10 second pulses on power setting of 3). After incubation for 24 hours in serum-free McCoy's medium, cells were loaded with 4 by replacement of the medium with medium containing 0.1 mM substrate. Excess Im-DCH-β-Gal(OAc) may be removed by rinsing the cells, after which the cells may be further incubated in serum free McCoy's medium. […] Excitation (Xenon lamp) through a 360 nm bandpass filter with 10% transmittance at 310 and 385 nm. Emission through a chromatic beam splitter mirror that transmits fully above 405 nm plus a long pass filter with a transmittance of 1% at 408 nm and 10% at 412 nm. Enzymatic hydrolysis was followed by scanning of the loaded cells in a 96-well tissue culture plate with a Dynatech Microfluorometer. Quantitation of product formation was achieved by comparison of the fluorescence generated within individual wells with a standard curve that was obtained from known concentrations of the fluorescent product, 3.
Decreased activity was measured in GM1 cells (12-16% of normal) by fluorescence scanning of 96-well plates. […] In contrast, normal cells are nonfluorescent 24 hours after loading, having hydrolysed their substrate and released the fluorescent product into the media.

[4] = biological target: T1, lysosomal β-galactosidase; assay: In vitro hydrolysis of the fluorogenic substrate by fibroblast lysates; assay type: biochemical
Experimental: The ability of 5 to serve as a fluorogenic substrate was tested using fibroblasts derived from patients with GM1 gangliosidosis, a hereditary deficiency of lysosomal β-galactosidase.

## Cl.N#Cc1c(O)ccc(OCCCCn2ccnc2)c1C#N [Compound 3, 2,3-dicyano-4-[4-(1-imidazolyl)-butoxy]-phenol hydrochloride salt]
[1]
  fluorescence intensity at pH 2 relative to the maximum: 60%
[2]
  pKa of the phenol: 5.6
[2]; excited state
  pKa of the excited state (pKa*): 0.5
[2]; lysosomotropic amine moiety of Im-DCH in compounds 4 and 5
  pKa of the N-alkyl imidazole moiety: approximately 7

## CC(=O)OC[C@H]1O[C@@H](Oc2ccc(OCCCCn3ccnc3)c(C#N)c2C#N)[C@H](OC(C)=O)[C@@H](OC(C)=O)[C@H]1OC(C)=O [Compound 4, β-D-galactopyranoside of 2,3-dicyano-4-[4-(1-imidazolyl)-butoxy]-phenol-2,3,4,6-tetra-O-acetate]
β-galactosidase
  activity as a substrate in cell-free systems: inactive
[3]; GM1 cells, fluorescence scanning of 96-well plates
  hydrolysis activity in intact GM1 cells relative to normal: 12-16 % of normal
[3]; GM1 fibroblasts, fluorescence microscopy
  intracellular localization of fluorescence in GM1 fibroblasts: initial perinuclear clustering followed within 24 hours by sequestration into vacuoles
[3]; comparison with cell lines expressing other lysosomal storage disorders
  specificity of the impaired hydrolysis in GM1 gangliosidosis lines: specific for their lysosomal β-galactosidase deficiency
[3]; human skin fibroblasts, 0.1 mM substrate
  uptake by intact fibroblasts: taken up by intact fibroblasts
[3]; normal fibroblasts, 24 hours after loading
  fluorescence of normal cells after loading: nonfluorescent

## N#Cc1c(OCCCCn2ccnc2)ccc(O[C@@H]2O[C@H](CO)[C@H](O)[C@H](O)[C@H]2O)c1C#N [Compound 5, β-D-galactopyranoside of 2,3-dicyano-4-[4-(1-imidazolyl)-butoxy]-phenol]
[4]; lysates from four GM1 gangliosidosis fibroblast lines
  hydrolysis activity in GM1 gangliosidosis lysates relative to normal: 0.3-5.3 % of normal activity
[4]; lysates from three normal fibroblast lines
  hydrolysis by lysates from normal fibroblasts: hydrolysed rapidly
